Laboratory results reported in patent publication US8927726B2, “N-cyclopropyl-N-piperidinyl-amide derivatives, pharmaceutical compositions containing them and uses thereof” (Boehringer Ingelheim International GmbH, priority 2012, dated 2015).

Key:
[1] = molecular target: T1, mutant form of the human GPR119 receptor (Homo sapiens, UniProt Q8TDV5, S329A/T327A); assay: LANCE cAMP-384 assay in HEK293 cells stably expressing mutant human GPR119; assay type: cell-based; settings: mutant human GPR119 (SEQ ID No. 1), 20 min at 37 C
T1 construct: X1, the printed 24-residue N-terminal leader ([…]) that replaces Met1; (N); expressed in transfected cells
T1 sequence (Q8TDV5 2-335 T327A/S329A): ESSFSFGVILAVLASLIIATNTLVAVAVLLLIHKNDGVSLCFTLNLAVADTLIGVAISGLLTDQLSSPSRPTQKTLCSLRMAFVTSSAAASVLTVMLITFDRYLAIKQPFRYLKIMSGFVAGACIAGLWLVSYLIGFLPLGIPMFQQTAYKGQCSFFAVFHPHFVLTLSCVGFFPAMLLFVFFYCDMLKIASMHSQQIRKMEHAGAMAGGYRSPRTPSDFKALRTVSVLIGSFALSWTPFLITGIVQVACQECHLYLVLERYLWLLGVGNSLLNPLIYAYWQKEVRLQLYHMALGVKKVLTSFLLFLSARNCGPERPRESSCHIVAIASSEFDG
Experimental: Quantitative detection of cAMP accumulation from cells expressing human GPR119 receptor is achieved using Perkin Elmer's LANCE cAMP-384 Kit (Cat #AD0264) according to the manufacturer's protocol. Briefly, HEK293 cells stably expressing a mutant form of the human GPR119 receptor as assay tool (Methionine 1 replaced with the amino acid sequence […], and T327 & S329 changed to alanines; SEQ ID No. 1) are grown to 50-70% confluency in cell culture media (DMEM, 10% heat inactivated Fetal Bovine Serum, 50 I.U./mL penicillin, 50 μg/mL streptomycin, 10 mM HEPES, 20 μg/mL G418 Sulfate). On the day of the assay, GPR119 stable HEK293 cells are lifted from the tissue culture plate and 1000 cells/well are incubated along with various concentrations of test compounds for 20 min at 37+ C. Detection Buffer (50mM HEPES, 10mM calcium chloride, 0.35% Triton X-100, 1 mg/mL BSA) containing cAMP-specific antibody is then added to all wells and allowed to equilibrate in the dark for 10 minutes at room temperature. Upon equilibration, Detection Buffer containing europium-labeled cAMP tracer complex is added to all wells and allowed to react for 1 hour at room temperature. After 1 hour, bound europium-labeled cAMP tracer is measured using a Perkin Elmer Envision plate reader. The quantity of cAMP generated in each well is derived from a standard curve. EC50 is determined using nonlinear regression analysis of the cAMP values over a range of agonist concentration (12 points spanning the range from 30 μM to 100 pM).

human GPR119 = molecular target: T2, human GPR119 (Homo sapiens, UniProt Q8TDV5); assay: AlphaScreen cAMP assay in MIN6 cells stably transfected with human GPR119; assay type: cell-based; settings: Min-6/hGPR119 cells, 45 minutes incubation at room temperature
T2 construct: expressed in transfected cells; host or cells: MIN6 (mouse insulinoma) cells, stably transfected
T2 sequence (Q8TDV5 1-335): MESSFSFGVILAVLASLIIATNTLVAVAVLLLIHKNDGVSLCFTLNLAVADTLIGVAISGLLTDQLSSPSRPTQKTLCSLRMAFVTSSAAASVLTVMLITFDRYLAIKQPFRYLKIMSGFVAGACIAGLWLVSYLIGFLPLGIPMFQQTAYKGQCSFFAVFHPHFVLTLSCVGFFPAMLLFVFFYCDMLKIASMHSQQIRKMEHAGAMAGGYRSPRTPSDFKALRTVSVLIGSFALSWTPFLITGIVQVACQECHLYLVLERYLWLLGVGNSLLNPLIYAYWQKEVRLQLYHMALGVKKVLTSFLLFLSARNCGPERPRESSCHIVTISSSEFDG
Experimental: The compounds of formula I according to the invention modulate the activity of the G-protein-coupled receptor GPR119. The effect of the compounds on the activation of GPR119 and on the stimulation of intracellular cAMP concentration is determined using the AlphaScreen cAMP Assay Kit (Cat. No. #6760625R) made by PerkinElmer.
MIN6 cells [Miyazaki Jet al. Endocrinology. 1990 July; 127(1):126-32] are stably transfected with an expression vector for human GPR119 cDNA (Acc. No. NP_848566). Min-6 / hGPR119 cells are cultured in DMEM, 10% FBS, 50 μM β-mercaptoethanol, 0.3 mg/mL Geniticin, 2 mM GlutaMAX at 37° C. 5% CO2. For the assay, the cells are seeded in Optiplates (white, 384-well, 160W-barcoded, TC, sterile with lid, Cat. No. #6007688 (Perkin Elmer); 10000 cells/well; 50 μl). The plates covered with lids are then incubated for 24 hours at 37° C./5% CO2. After the medium is aspirated from the wells completely, 10 μl of the test compound are added, the compounds are diluted using stimulating buffer (140 mM NaCl, 3.6 mM KCl, 0.5 mM NaH2PO4, 0.5 mM MgSO4, 1.5 mM CaCl2, 10 mM Hepes, 5 mM NaHCO3; pH 7.4. 0.5 mM IBMX and 0.1% BSA, the final DMSO concentration is 1%). After 45 minutes incubation at room temperature (approx. 20° C.), the cAMP concentrations are determined using the AlphaScreen cAMP Assay Kit (Cat.No.# 6760625R from PerkinElmer).

SMILES | EC50 [1] [nM] | EC50 (human GPR119) [nM]
O=C(c1ccc(-n2cncn2)c(F)c1)N(C1CC1)[C@@H]1CCN(CC2(C(F)(F)F)CC2)C[C@@H]1F (single isomer, unassigned) [Example 11] | 10 | 
CC(C)(F)CN1CCC(N(C(=O)c2ccc(-c3cnco3)c(F)c2)C2CC2)CC1 [Example 4, N-Cyclopropyl-3-fluoro-N[1-(2-fluoro-2-methyl-propyl)-piperidin-4-yl]-4-oxazol-5-yl-benzamide] |  | 63
CC(C)(F)CN1CCC(N(C(=O)c2cc(-c3ccc(C#N)cc3F)no2)C2CC2)CC1 [Example 8, 3-(4-Cyano-2-fluoro-phenyl)-isoxazole-5-carboxylic acid cyclopropyl-[1-(2-fluoro-2-methyl-propyl)-piperidin-4-yl]-amide] |  | 22
O=C(c1ccc(-c2cnco2)cc1)N(C1CC1)C1CCN(CCC(F)(F)F)CC1 [Example 2, N-Cyclopropyl-4-oxazol-5-yl-N-[1-(3,3,3-trifluoro-propyl)-piperidin-4-yl]-benzamide] |  | 643
O=C(c1ccc(-c2cnco2)cc1)N(C1CC1)C1CCN(CC2(C(F)(F)F)CC2)CC1 [Example 3, N-Cyclopropyl-4-oxazol-5-yl-N-[1-(1-trifluoromethyl-cyclopropylmethyl)-piperidin-4-yl]-benzamide] |  | 79
CC(C)(F)CN1CCC(N(C(=O)c2cc(-c3ccc(C#N)cc3)on2)C2CC2)CC1 [Example 6, 5-(4-Cyano-phenyl)-isoxazole-3-carboxylic acid cyclopropyl-[1-(2-fluoro-2-methyl-propyl) -piperidin-4-yl]-amide] |  | 50
N#Cc1ccc(-c2cc(C(=O)N(C3CC3)C3CCN(CC4(C(F)(F)F)CC4)CC3)no2)cc1 [Example 5, 5-(4-Cyano-phenyl)-isoxazole-3-carboxylic acid cyclopropyl-[1-(1-trifluoromethyl-cyclopropylmethyl) -piperidin-4-yl]-amide] |  | 27
N#Cc1ccc(-c2cc(C(=O)N(C3CC3)C3CCN(CC4(C(F)(F)F)CC4)CC3)on2)c(F)c1 [Example 7, 3-(4-Cyano-2-fluoro-phenyl)-isoxazole-5-carboxylic acid cyclopropyl-[1-(1-trifluoromethyl-cyclopropylmethyl)-piperidin-4-yl]-amide] |  | 9
CC(C)(F)CN1CCC(N(C(=O)c2cc(-c3ccc(C#N)cc3F)on2)C2CC2)CC1 [Example 10, 5-(4-Cyano-2-fluoro-phenyl)-isoxazole-3-carboxylic acid cyclopropyl-[1-(2-fluoro-2-methyl-propyl)-piperidin-4-yl]-amide] |  | 19
O=C(c1cnc(-n2cncn2)cn1)N(C1CC1)[C@@H]1CCN(CC2(C(F)(F)F)CC2)C[C@@H]1F (single isomer, unassigned) [Example 13] |  | 2
Cc1nnnn1-c1ccc(C(=O)N(C2CC2)[C@@H]2CCN(CC3(C(F)(F)F)CC3)C[C@@H]2F)cn1 (single isomer, unassigned) [Example 12] | 12 | 
Cc1ncn(-c2cnc(C(=O)N(C3CC3)[C@@H]3CCN(CC4(C(F)(F)F)CC4)C[C@@H]3F)cn2)n1 (single isomer, unassigned) [Example 15] | 30 | 
Cc1nccn1-c1ncc(C(=O)N(C2CC2)[C@@H]2CCN(CC3(C(F)(F)F)CC3)C[C@@H]2F)cn1 (single isomer, unassigned) [Example 14] | 27 | 
N#Cc1ccc(-c2cc(C(=O)N(C3CC3)C3CCN(CC4(C(F)(F)F)CC4)CC3)no2)c(F)c1 [Example 9, 5-(4-Cyano-2-fluoro-phenyl)-isoxazole-3-carboxylic acid cyclopropyl-[1-(1-trifluoromethyl-cyclopropylmethyl)-piperidin-4-yl]-amide] |  | 6
CC(C)(F)CN1CCC(N(C(=O)c2ccc(-c3cnco3)cc2)C2CC2)CC1 [Example 1, N-Cyclopropyl-N-[1-(2-fluoro-2-methyl-propyl)-piperidin-4-yl]-4-oxazol-5-yl-benzamide] |  | 456
